Series [1] has as its system R848-induced IL-6 secretion in human peripheral blood mononuclear cells (PBMCs). Briefly: Inhibition of R848-induced IL-6 secretion in human PBMCs (IL-6 ELISA). The following applies: PBMC, R848 2.5 μg/mL, 20 h pre-incubation, 24 h stimulation. It counts as cell-based. In outline:
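Human PBMCs at 1.25×10^6 cells/mL were preincubated for 20 h at 37 °C with compound, starting at 1 μM in 4-fold dilutions. They were then stimulated with 2.5 μg/mL R848 for 24 h. Supernatant IL-6 was measured by ELISA at OD450 against a standard curve.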
(In general: ELISA stands for enzyme-linked immunosorbent assay.)

Series [2] has as its system LPS/IL-1β-induced IL-6 secretion in human peripheral blood mononuclear cells (PBMCs). The series can be described thus: Inhibition of LPS/IL-1β-induced IL-6 secretion in human PBMCs (IL-6 ELISA). It counts as cell-based. The following applies: PBMC, LPS 10 ng/mL + IL-1β 20 ng/mL, 24 h pre-incubation, 20 h stimulation. In outline: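 IC50 values come from fitted curves of IL-6 levels, determined by ELISA (OD450, standard curve) in supernatants diluted 200-fold. Human PBMCs received 5-fold serial compound dilutions (top 1 μM) for 24 h before a 20 h challenge with final 10 ng/mL LPS and 20 ng/mL IL-1β, 37 °C, 5% CO2.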

Another series concerns the target T1, IRAK4 (Homo sapiens, UniProt Q9NWZ3).
T1 construct: Effect of the Compounds on IRAK4 Protein Degradation in THP1 Cells; endogenous in cells; host or cells: THP-1 cells
T1 sequence (Q9NWZ3 1-460): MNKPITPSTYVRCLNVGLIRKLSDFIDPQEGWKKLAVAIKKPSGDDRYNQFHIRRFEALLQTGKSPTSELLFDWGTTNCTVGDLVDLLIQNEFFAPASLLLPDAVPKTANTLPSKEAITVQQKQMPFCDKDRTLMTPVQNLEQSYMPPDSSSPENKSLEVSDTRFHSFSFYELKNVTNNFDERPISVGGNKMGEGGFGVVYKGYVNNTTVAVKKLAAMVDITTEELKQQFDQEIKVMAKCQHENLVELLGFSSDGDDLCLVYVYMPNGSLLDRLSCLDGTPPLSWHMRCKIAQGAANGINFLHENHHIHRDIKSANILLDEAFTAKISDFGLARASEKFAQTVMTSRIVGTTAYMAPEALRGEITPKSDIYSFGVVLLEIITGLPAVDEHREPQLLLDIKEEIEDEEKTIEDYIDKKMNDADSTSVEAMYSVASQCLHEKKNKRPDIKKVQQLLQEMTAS
The series can be described thus: IRAK4 protein degradation in THP1 cells (Western blot). Type of series: cell-based. The conditions noted are these: THP-1 cells, 24 h. In outline: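 THP-1 cells (2×10^5/well) were treated with 5-fold serial compound dilutions for 24 h at 37 °C, then lysed with proteasome/phosphatase inhibitors. IRAK4 was detected by Western blot with chemiluminescence and semi-quantified by densitometry. DC50 came from the concentration–response.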
(In western blotting, separated proteins are transferred to a membrane and probed.)

The nature of series [3]: Pharmacokinetic experiment on SD rats (iv and intragastric). The conditions noted are these: Sprague-Dawley, rat, plasma, po; for bioavailability: ig 10.00 mg/kg vs iv 1.00 mg/kg, read-out: Oral bioavailability Fobs; for AUC / AUC(0-inf) / Cmax: ig, 10.00 mg/kg; for Cmax: read-out: Peak plasma concentration Cmax. It counts as in vivo.

Here are results for eight molecules from patent US20260216348A1, “IRAK DEGRADATION AGENT AND USE THEREOF” (Increland, priority 2023, published 2026).

With `CN(C)c1cc2nn([C@H]3CC[C@H](CN4C[C@@H](F)[C@H](n5cc6cc(C7CCC(=O)NC7=O)ccc6n5)C4)CC3)cc2cc1NC(=O)c1cnn2cccnc12` (stereo partly drawn) [TM-244], half-maximal inhibition in series [1] (IC50) was put at 14.4 nM. Further, the IC50 (usually the concentration needed to halve the response being measured) in series [2] was 4.95 nM. In addition, on IRAK4, half-maximal degradation (DC50) was put at 3.21 nM. In series [3], the bioavailability (as a rule, dose-corrected exposure relative to a reference, in per cent) came out at 54.2%; the AUC (as a rule, the area under the concentration-time curve, a measure of exposure) was 13000 ± 2900 ng·h/mL; the AUC(0-inf) (commonly total exposure, with the tail of the curve extrapolated) turned out to be 13200 ± 2960 ng·h/mL; the Cmax came to 1330 ± 294 ng/mL.
Regarding `CN(C)c1cc2nn([C@H]3CC[C@H](CN4C[C@@H](n5cc6cc(C7CCC(=O)NC7=O)c(F)cc6n5)[C@@H](F)C4)CC3)cc2cc1NC(=O)c1cnn2cccnc12` (stereo partly drawn) [TM-241], inhibition in series [1] was half-maximal at 9.08 nM (IC50). In addition, the IC50 in series [2] turned out to be 6.35 nM. Also, the DC50 (as a rule, the concentration at which degradation of the target reaches its halfway point) on IRAK4 stood at 11.7 nM. Moreover, in series [3], the bioavailability was determined as 35.2%, the AUC came out at 14200 ± 4660 ng·h/mL, the AUC(0-inf) was 14900 ± 4690 ng·h/mL and the Cmax came out at 1650 ± 641 ng/mL.
Take `CN(C)c1cc2nn([C@H]3CC[C@H](CN4C[C@@H](F)[C@H](n5cc6cc(C7CCC(=O)NC7=O)c(F)cc6n5)C4)CC3)cc2cc1NC(=O)c1cnn2cccnc12` (stereo partly drawn) [TM-245]: inhibition in series [1] was half-maximal at 4.02 nM (IC50). Moreover, the IC50 in series [2] is 2.58 nM. It took 1.41 nM to reach half-maximal degradation at IRAK4 (DC50). In series [3], the bioavailability amounted to 63.7%, the AUC was 14500 ± 1420 ng·h/mL, the AUC(0-inf) amounted to 19000 ± 5060 ng·h/mL and the Cmax was 1190 ± 92.3 ng/mL.
In the case of `CN(C)c1cc2nn([C@H]3CC[C@H](CN4C[C@@H](F)[C@@H](n5cc6cc(C7CCC(=O)NC7=O)c(F)cc6n5)C4)CC3)cc2cc1NC(=O)c1cnn2cccnc12` (stereo partly drawn) [TM-240], 2.68 nM corresponded to half-maximal inhibition in series [1] (IC50). Besides, the IC50 in series [2] turned out to be 1.09 nM. This molecule also had a DC50 on IRAK4 of 2.61 nM. For the same molecule, in series [3], the bioavailability worked out at 29.9%, the AUC worked out at 7990 ± 3140 ng·h/mL, the AUC(0-inf) came out at 7990 ± 3120 ng·h/mL and the Cmax came to 976 ± 545 ng/mL.
`CN(C)c1cc2nn([C@H]3CC[C@H](CN4CC[C@@H](n5cc6cc(C7CCC(=O)NC7=O)c(F)cc6n5)[C@@H](F)C4)CC3)cc2cc1NC(=O)c1cnn2cccnc12` (stereo partly drawn) [TM-135]: the results for the IC50 in series [1] and in series [2] were 4.53 nM and 2.66 nM, respectively. Besides, at IRAK4, the DC50 amounted to 1.23 nM.
On to `CN(C)c1cc2nn([C@H]3CC[C@H](CN4C[C@H](F)[C@@H](n5cc6cc(C7CCC(=O)NC7=O)c(F)cc6n5)C4)CC3)cc2cc1NC(=O)c1cnn2cccnc12` (stereo partly drawn) [TM-249], for which the IC50 in series [1] is 4.37 nM. In series [2], the IC50 came out at 3.08 nM. Besides, the DC50 on IRAK4 was determined as 2.38 nM. Also, in series [3], the bioavailability worked out at 38.8%, the AUC came to 8610 ± 4000 ng·h/mL, the AUC(0-inf) turned out to be 9310 ± 4680 ng·h/mL and the Cmax was found to be 814 ± 187 ng/mL.
As for `CN(C)c1cc2nn([C@H]3CC[C@H](CN4C[C@@H](n5cc6cc(N7CCC(=O)NC7=O)ccc6n5)[C@@H](F)C4)CC3)cc2cc1NC(=O)c1cnn2cccnc12` [TM-205], the IC50 amounted to 3.78 nM in series [1] and 2.47 nM in series [2]. The DC50 at IRAK4 is 1.56 nM.
Consider `CN(C)c1cc2nn([C@H]3CC[C@H](CN4CCC(n5cc6c(F)cc(N7CCC(=O)NC7=O)cc6n5)CC4)CC3)cc2cc1NC(=O)c1cnn2cccnc12` [TM-174], for which, in series [1], the IC50 amounted to 3.19 nM. Moreover, the IC50 in series [2] stood at 1.49 nM. On IRAK4, half-maximal degradation (DC50) was put at 1.24 nM. Moreover, in series [3], the bioavailability is 24.5%, the AUC was 3630 ± 1500 ng·h/mL, the AUC(0-inf) came out at 4160 ± 1440 ng·h/mL and the Cmax turned out to be 356 ± 201 ng/mL.
